From ChEMBL document CHEMBL5724914, “Linking interpersonal differences in gut microbiota composition and drug biotransformation activity” (2024)

Experiments:
[1] = The drug is tested on Z-030 corresponding to mouse gut metagenome with ENA study accession number: PRJEB37062 and ENA sample accession number: ERS12561829 for biotransformation under anaerobic condition. The drug concentrations were measured over 9 timepoints collected between 0 and 24 hours of incubation by liquid-chromatography-coupled mass spectrometry (LC–MS); details: 2 µM
[2] = The drug is tested on Z-025 corresponding to rabbit gut metagenome with ENA study accession number: PRJEB37062 and ENA sample accession number: ERS12561824 for biotransformation under anaerobic condition. The drug concentrations were measured over 9 timepoints collected between 0 and 24 hours of incubation by liquid-chromatography-coupled mass spectrometry (LC–MS); details: 2 µM
[3] = The drug is tested on Z-016 corresponding to mouse gut metagenome with ENA study accession number: PRJEB37062 and ENA sample accession number: ERS12561815 for biotransformation under anaerobic condition. The drug concentrations were measured over 9 timepoints collected between 0 and 24 hours of incubation by liquid-chromatography-coupled mass spectrometry (LC–MS); details: 2 µM
[4] = The drug is tested on Z-008 corresponding to metagenome with ENA study accession number: PRJEB37062 and ENA sample accession number: ERS12561808 for biotransformation under anaerobic condition. The drug concentrations were measured over 9 timepoints collected between 0 and 24 hours of incubation by liquid-chromatography-coupled mass spectrometry (LC–MS); details: 2 µM
[5] = The drug is tested on Z-005 corresponding to metagenome with ENA study accession number: PRJEB37062 and ENA sample accession number: ERS12561805 for biotransformation under anaerobic condition. The drug concentrations were measured over 9 timepoints collected between 0 and 24 hours of incubation by liquid-chromatography-coupled mass spectrometry (LC–MS); details: 2 µM
[6] = The drug is tested on Z-004 corresponding to metagenome with ENA study accession number: PRJEB37062 and ENA sample accession number: ERS12561804 for biotransformation under anaerobic condition. The drug concentrations were measured over 9 timepoints collected between 0 and 24 hours of incubation by liquid-chromatography-coupled mass spectrometry (LC–MS); details: 2 µM
[7] = The drug is tested on WLS-310 corresponding to human gut metagenome with ENA study accession number: PRJEB37062 and ENA sample accession number: ERS12561785 for biotransformation under anaerobic condition. The drug concentrations were measured over 9 timepoints collected between 0 and 24 hours of incubation by liquid-chromatography-coupled mass spectrometry (LC–MS); details: 2 µM
[8] = The drug is tested on WLS-098 corresponding to human gut metagenome with ENA study accession number: PRJEB37062 and ENA sample accession number: ERS12561754 for biotransformation under anaerobic condition. The drug concentrations were measured over 9 timepoints collected between 0 and 24 hours of incubation by liquid-chromatography-coupled mass spectrometry (LC–MS); details: 2 µM
[9] = The drug is tested on WLS-090 corresponding to human gut metagenome with ENA study accession number: PRJEB37062 and ENA sample accession number: ERS12561753 for biotransformation under anaerobic condition. The drug concentrations were measured over 9 timepoints collected between 0 and 24 hours of incubation by liquid-chromatography-coupled mass spectrometry (LC–MS); details: 2 µM
[10] = The drug is tested on WLS-086 corresponding to human gut metagenome with ENA study accession number: PRJEB37062 and ENA sample accession number: ERS12561752 for biotransformation under anaerobic condition. The drug concentrations were measured over 9 timepoints collected between 0 and 24 hours of incubation by liquid-chromatography-coupled mass spectrometry (LC–MS); details: 2 µM
[11] = The drug is tested on WLS-039 corresponding to human gut metagenome with ENA study accession number: PRJEB37062 and ENA sample accession number: ERS12561746 for biotransformation under anaerobic condition. The drug concentrations were measured over 9 timepoints collected between 0 and 24 hours of incubation by liquid-chromatography-coupled mass spectrometry (LC–MS); details: 2 µM
[12] = The drug is tested on WLS-006 corresponding to human gut metagenome with ENA study accession number: PRJEB37062 and ENA sample accession number: ERS12561741 for biotransformation under anaerobic condition. The drug concentrations were measured over 9 timepoints collected between 0 and 24 hours of incubation by liquid-chromatography-coupled mass spectrometry (LC–MS); details: 2 µM
[13] = human gut metagenome, 24 h, 2 µM
[14] = human gut metagenome, 24 h, 2 µM; remark: listed apart in the source
[15] = human gut metagenome, 24 h, 2 µM; remark: listed apart in the source
[16] = human gut metagenome, 24 h, 2 µM; remark: listed apart in the source
[17] = human gut metagenome, 24 h, 2 µM; remark: listed apart in the source
[18] = human gut metagenome, 24 h, 2 µM; remark: listed apart in the source
[19] = human gut metagenome, 24 h, 2 µM; remark: listed apart in the source
[20] = human gut metagenome, 24 h, 2 µM; remark: listed apart in the source
Further: call rule not given here.

SMILES	Bacterial Biotransformation [1]	Bacterial Biotransformation [2]	Bacterial Biotransformation [3]	Bacterial Biotransformation [4]	Bacterial Biotransformation [5]	Bacterial Biotransformation [6]	Bacterial Biotransformation [7]	Bacterial Biotransformation [8]	Bacterial Biotransformation [9]	Bacterial Biotransformation [10]	Bacterial Biotransformation [11]	Bacterial Biotransformation [12]	Bacterial Biotransformation [13]	Bacterial Biotransformation [14]	Bacterial Biotransformation [15]	Bacterial Biotransformation [16]	Bacterial Biotransformation [17]	Bacterial Biotransformation [18]	Bacterial Biotransformation [19]	Bacterial Biotransformation [20]
COc1ccc2c3c1O[C@H]1C[C@@H](O)C=C[C@@]31CCN(C)C2 [GALANTAMINE]	Compound NOT metabolized	Compound NOT metabolized	Compound NOT metabolized	Compound NOT metabolized	Compound NOT metabolized	Compound NOT metabolized	Compound metabolized	Compound metabolized	Compound metabolized	Compound metabolized	Compound NOT metabolized	Compound NOT metabolized	Compound NOT metabolized	Compound metabolized	Compound NOT metabolized	Compound metabolized	Compound NOT metabolized	Compound NOT metabolized	Compound metabolized	Compound metabolized
Cc1ccc(S(=O)(=O)NC(=O)NN2CC3CCCC3C2)cc1 (stereo not given) [GLICLAZIDE]	Compound NOT metabolized	Compound NOT metabolized	Compound metabolized	Compound NOT metabolized	Compound metabolized	Compound NOT metabolized	Compound metabolized	Compound metabolized	Compound metabolized	Compound metabolized	Compound metabolized	Compound metabolized	Compound metabolized	Compound metabolized	Compound metabolized	Compound metabolized	Compound metabolized	Compound metabolized	Compound metabolized	Compound metabolized
COC1=CC(=O)C[C@@H](C)[C@]12Oc1c(Cl)c(OC)cc(OC)c1C2=O [GRISEOFULVIN]	Compound NOT metabolized	Compound metabolized	Compound metabolized	Compound NOT metabolized	Compound metabolized	Compound metabolized	Compound metabolized	Compound NOT metabolized	Compound NOT metabolized	Compound metabolized	Compound metabolized	Compound metabolized	Compound metabolized	Compound metabolized	Compound metabolized	Compound metabolized	Compound metabolized	Compound metabolized	Compound NOT metabolized	Compound metabolized
